From ChEMBL document CHEMBL5252595, “A Quarter Century of Marine Biodiscovery in Algoa Bay, South Africa” (J Nat Prod, 2023) come the findings set out here.

SMILES strings stand for the structures.

One assay concerns MDA-MB-231. The assay can be described thus: Anticancer activity against human MDA-MB-231 cells assessed as cell growth incubated for 24 hrs by MTT assay. It counts as functional, cell-based. The conditions noted are these: MDA-MB-231, 24 h.
A short description of assay [1]: Anticancer activity against human U-87 MG cells assessed as cell growth inhibition. It counts as functional, U-87MG ATCC. The conditions noted are these: read-out: LC50 (the source's name).
For a further assay, the system named is NCI-H460. As to the kind of experiment: Anticancer activity against human NCI-H460 cells assessed as cell growth incubated for 48 hrs by MTT assay. The conditions noted are these: NCI-H460, 48 h. The assay is classed as functional, cell-based.
The test system of the next assay is HCT-116. As to the kind of experiment: Anticancer activity against human HCT-116 cells assessed as cell growth inhibition. It counts as functional. The conditions noted are these: read-out: LC50 (the source's name).
A further assay relates to SNB-19. The assay can be described thus: Anticancer activity against human SNB-19 cells assessed as cell growth inhibition. The assay is classed as functional, cell-based.
The test system of another assay is A549. As to the kind of experiment: Anticancer activity against human A549 cells assessed as cell growth inhibition. It counts as functional, cell-based.
The test system of the next assay is LOX IMVI. As to the kind of experiment: Anticancer activity against human LOX IMVI cells assessed as cell growth inhibition. It counts as functional, cell-based.
For the next assay, the system named is OVCAR-3. As to the kind of experiment: Anticancer activity against human OVCAR-3 cells assessed as cell growth inhibition. It counts as functional, cell-based.
A short description of assay [2]: Anticancer activity against human WHCO1 cells assessed as cell growth incubated for 24 hrs by MTT assay. It counts as functional, cell-based. The conditions noted are these: WHCO1, 24 h.

With `O=C1Cc2ccc(Br)cc2N1`, the 50% inhibitory concentration (IC50) in the assay with MDA-MB-231 came out at 74 µM.

As for `CO[C@H]1[C@H](O[C@@H]2C[C@@H]3C/C=C/C(=O)O[C@H](CO)C[C@H](O)[C@@H]4C[C@H](C)[C@H](C/C=C\C=C\[C@H](C)C[C@H](C2)O3)O4)O[C@@H](C)[C@H](O)[C@H]1O`, the CC50 in assay [1] stood at 0.00038 µM. Also, the IC50 in the assay on NCI-H460 was 0.012 µM. As to `Clc1c[nH]c2cc(Br)ccc12`, the concentration for half-maximal inhibition (IC50) in the assay on MDA-MB-231 turned out to be 73 µM.

In the case of `CC.CCCCCCCC(=O)OC[C@@H]1C[C@H](O)[C@@H]2C[C@H](C)[C@H](C/C=C\C=C\[C@H](C)C[C@@H]3C[C@H](O[C@@H]4O[C@@H](C)[C@H](O)[C@@H](O)[C@H]4OC)C[C@H](C/C=C/C(=O)O1)O3)O2`, the CC50 in [1] was 0.061 µM; with HCT-116, 0.054 µM. Consider `CCCCCCCC/C=C/C=C/[C@@H](C)N`, for which the 50% inhibitory concentration (IC50) in the assay on SNB-19, with A549, in the assay on LOX IMVI and in the assay on OVCAR-3 was 30 µM throughout. Turning to `C/C(=C\Cc1cc(O)c(C)cc1O)CC/C=C(\C)CC(=O)CC(C)C`, the half-inhibitory concentration (IC50) in assay [2] worked out at 9.5 µM.

For the compound `CCCC(=O)O[C@@H]1C[C@H]2C[C@@H](O[C@@H]3O[C@@H](C)[C@@H](O)[C@@H](O)[C@H]3OC)C[C@@H](C[C@@H](C)/C=C/C=C\C[C@@H]3O[C@@H](C[C@@H]3C)[C@@H](O)C[C@H]3C[C@@]1(O)C(=O)O3)O2`, the IC50 with NCI-H460 is 0.044 µM. For the compound `Brc1ccc2c(Br)c[nH]c2c1`, the IC50 in the assay on MDA-MB-231 was 118 µM. In the case of `O=C1C[C@H]2S[C@H]3C[C@]2(C=C1Br)C1=C(N3)C(=O)c2[nH]cc3c2C1=NCC3` [DISCORHABDINE A], in assay [2], the IC50 was 0.017 µM.
